The record followed here is US20060252820A1, “Composition for oral administration containing alkylene dioxybenzene derivative” (priority 2003, published 2006).

The structures appear in SMILES notation.

This data set is described as follows: Conventional preparation of MKC-242 administered to a human. Type of data set: in vivo. The following applies: conventional preparation (tablet) administered to a human.

Consider `Cl.c1ccc2c(c1)OC[C@H](CNCCCOc1ccc3c(c1)OCO3)O2` [MKC-242, 5-[3-[[(2S)-1,4-benzodioxan-2-ylmethyl]amino]propoxy]-1,3-benzodioxole hydrochloride], for which the symptoms recognized entry (depending on drug concentration in plasma, all slight) is listed as “nausea, dizziness, orthostatic syncope”. Further, the half-life (plasma, oral, read-out: half-life T1/2) fell in the range of 120 to 300 min.
